Laboratory results as given in ChEMBL document CHEMBL5104135, “Potent and selective TYK2-JH1 inhibitors highly efficacious in rodent model of psoriasis” (Bioorg Med Chem Lett, 2022).
Values after ≈ are worked out from the molar mass of the structure shown. Active and inactive are the calls of the source. No cut-off for these calls is given here.

What was measured:
[1] = Clearance in mouse at 3 mg/kg, iv; assay type: ADME, organism-based; details: in vivo
[2] = target: Protein kinase C (PKC) (Rattus norvegicus) (UniProt P05696+P68403+P09216+P63319+P09215+Q64617+Q9WTQ0+P09217); experiment: Inhibition of rat PKC at 10 uM measured by radioligand binding assay relative to control; assay type: protein assay
[3] = Oral bioavailability in rat at 10 mg/kg; assay type: ADME, organism-based; details: in vivo
[4] = Kinetic solubility of compound at pH 7.4; details: buffer
Blood [5] = experiment: Inhibition of IL-12- induced IFN-gamma production in mouse whole blood; assay type: functional, tissue-based
Spleen [6] = experiment: Anti-inflammatory activity in imiquimod-induced mouse psoriasis model assessed as reduction in spleen weight at 10 to 100 mg/kg/day; assay type: functional, organism-based; details: dose 10-100 mg/kg/day
[7] = Oral bioavailability in mouse at 10 mg/kg; assay type: ADME, organism-based; details: in vivo
[8] = target: T1, Peroxisome proliferator-activated receptor gamma (Homo sapiens) (UniProt P37231); experiment: Inhibition of human PPARgamma at 10 uM measured by radioligand binding assay relative to control
T1 sequence (whole entry): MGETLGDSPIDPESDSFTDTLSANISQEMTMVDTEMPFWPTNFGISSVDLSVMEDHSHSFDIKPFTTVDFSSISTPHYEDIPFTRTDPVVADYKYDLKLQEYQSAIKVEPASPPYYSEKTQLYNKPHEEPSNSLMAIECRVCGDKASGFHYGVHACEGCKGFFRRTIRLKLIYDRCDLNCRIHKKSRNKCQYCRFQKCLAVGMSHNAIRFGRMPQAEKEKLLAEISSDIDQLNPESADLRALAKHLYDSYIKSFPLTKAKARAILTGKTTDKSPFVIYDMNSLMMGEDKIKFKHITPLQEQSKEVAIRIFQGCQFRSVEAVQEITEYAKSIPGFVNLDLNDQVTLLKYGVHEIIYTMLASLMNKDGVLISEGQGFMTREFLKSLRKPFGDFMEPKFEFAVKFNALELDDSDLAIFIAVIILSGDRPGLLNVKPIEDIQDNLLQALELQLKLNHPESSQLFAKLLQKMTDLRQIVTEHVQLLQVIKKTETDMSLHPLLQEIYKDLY

[9] = Plasma protein binding in rat
[10] = Oral bioavailability in dog at 10 mg/kg; assay type: ADME, organism-based, Canis lupus familiaris; details: in vivo
[11] = Plasma protein binding in dog
[12] = target: Phosphodiesterase 4 (Homo sapiens) (UniProt P27815+Q08499+Q07343+Q08493); experiment: Inhibition of human PDE4 at 10 uM measured by radioligand binding assay relative to control; assay type: protein assay
[13] = target: Tyrosine-protein kinase Lck (Homo sapiens) (UniProt P06239); experiment: Inhibition of human LCK at 10 uM measured by radioligand binding assay relative to control
Tyrosine-protein kinase Lck (Homo sapiens), sequence (P06239 2-509 limits assumed): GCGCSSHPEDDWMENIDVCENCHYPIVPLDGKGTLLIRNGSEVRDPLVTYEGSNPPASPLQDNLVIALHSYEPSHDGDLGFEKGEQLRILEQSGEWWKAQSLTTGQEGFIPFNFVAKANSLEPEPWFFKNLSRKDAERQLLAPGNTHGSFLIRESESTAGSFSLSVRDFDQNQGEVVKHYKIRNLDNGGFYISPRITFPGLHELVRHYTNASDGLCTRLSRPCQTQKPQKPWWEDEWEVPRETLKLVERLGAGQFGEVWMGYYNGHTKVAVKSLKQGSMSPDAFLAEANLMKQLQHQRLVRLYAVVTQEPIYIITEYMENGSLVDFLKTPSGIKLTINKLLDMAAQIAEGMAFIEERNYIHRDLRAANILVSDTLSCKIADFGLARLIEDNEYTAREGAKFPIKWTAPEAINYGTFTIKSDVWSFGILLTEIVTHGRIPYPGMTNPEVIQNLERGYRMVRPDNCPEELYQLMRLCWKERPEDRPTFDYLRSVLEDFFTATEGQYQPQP

[14] = Plasma protein binding in human assessed as unbound fraction
[15] = Thermodynamic solubility in simulated gastric fluid; assay type: physicochemical; details: read-out: Therm_solubility
Spleen [16] = experiment: Anti-inflammatory activity in imiquimod-induced mouse psoriasis model assessed as reduction in inflammation in spleen at 10 to 100 mg/kg/day; assay type: functional, organism-based; details: dose 10-100 mg/kg/day
[17] = Clearance in dog at 3 mg/kg, iv; assay type: ADME, organism-based, Canis lupus familiaris; details: in vivo
[18] = Plasma protein binding in mouse assessed as unbound fraction
[19] = Half-life in mouse at 3 mg/kg, iv; assay type: ADME, organism-based; details: in vivo
[20] = Thermodynamic solubility in fasted simulated intestinal fluid; assay type: physicochemical; details: read-out: Therm_solubility
Mus musculus [21] = experiment: Anti-inflammatory activity in IL-23-induced ear inflammation model of mouse assessed as inhibition of IL-17A levels at 100 mg/kg/day; assay type: functional
[22] = Volume of distribution in rat at 3 mg/kg, iv; assay type: ADME, organism-based; details: in vivo
[23] = Clearance in rat at 3 mg/kg, iv; assay type: ADME, organism-based; details: in vivo
Mus musculus [24] = experiment: Anti-inflammatory activity in imiquimod-induced mouse psoriasis model assessed as reduction in psoriasis score at 10 to 100 mg/kg/day; assay type: functional, organism-based; details: dose 10-100 mg/kg/day
[25] = Half-life in rat at 3 mg/kg, iv; assay type: ADME, organism-based; details: in vivo
Blood [26] = experiment: Inhibition of IL-12- induced IFN-gamma production in human whole blood; assay type: functional, tissue-based
[27] = Volume of distribution in dog at 3 mg/kg, iv; assay type: ADME, organism-based, Canis lupus familiaris; details: in vivo
[28] = target: T2, Alpha-2B adrenergic receptor (Homo sapiens) (UniProt P18089); experiment: Inhibition of human adrenergic alpha2B at 10 uM measured by radioligand binding assay relative to control
T2 sequence (whole entry): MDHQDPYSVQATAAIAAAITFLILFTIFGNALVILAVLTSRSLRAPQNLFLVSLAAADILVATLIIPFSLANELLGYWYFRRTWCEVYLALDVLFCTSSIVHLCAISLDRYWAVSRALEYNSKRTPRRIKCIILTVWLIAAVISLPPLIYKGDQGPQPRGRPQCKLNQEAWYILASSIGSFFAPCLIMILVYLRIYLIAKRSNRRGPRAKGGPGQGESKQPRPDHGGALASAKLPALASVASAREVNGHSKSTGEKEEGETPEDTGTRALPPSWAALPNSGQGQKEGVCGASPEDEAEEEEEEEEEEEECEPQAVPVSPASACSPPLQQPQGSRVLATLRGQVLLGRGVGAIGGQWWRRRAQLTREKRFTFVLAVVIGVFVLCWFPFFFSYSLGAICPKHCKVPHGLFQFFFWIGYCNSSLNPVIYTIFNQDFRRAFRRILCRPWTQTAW

[29] = Plasma protein binding in dog assessed as unbound fraction
[30] = Half-life in dog at 3 mg/kg, iv; assay type: ADME, organism-based, Canis lupus familiaris; details: in vivo
[31] = Plasma protein binding in rat assessed as unbound fraction
[32] = Volume of distribution in mouse at 3 mg/kg, iv; assay type: ADME, organism-based; details: in vivo
Mus musculus [33] = experiment: Anti-inflammatory activity in IL-23-induced ear inflammation model of mouse assessed as inhibition of ear swelling at 100 mg/kg/day; assay type: functional

clearance [1]: 28 mL/min/kg
inhibition [2]: 66%
bioavailability [3]: 32%
solubility kinetic [4]: 270 µM (≈ 117 µg/mL)
IC50 (Blood [5]; Mus musculus, Blood): 5.9 µM
bioavailability [7]: > 90%
inhibition [8]: 68%
fraction unbound [9]: 0.13
bioavailability [10]: 63%
fraction unbound [11]: 0.13
inhibition [12]: 59%
inhibition [13]: 61%
fraction unbound [14]: 0.099
solubility thermodynamic [15]: 2300 µM (≈ 999 µg/mL)
clearance [17]: 5.2 mL/min/kg
fraction unbound [18]: 0.061
half-life [19]: 108 min
solubility thermodynamic [20]: 240 µM (≈ 104 µg/mL)
Vd [22]: 1.9 L/kg
clearance [23]: 27 mL/min/kg
half-life [25]: 96 min
IC50 (Blood [26]; Homo sapiens, Blood): 1800 nM
Vd [27]: 2.5 L/kg
inhibition [28]: 56%
fraction unbound [29]: 0.13
half-life [30]: 390 min
fraction unbound [31]: 0.1
Vd [32]: 1.2 L/kg
SMILES: O=C1NCc2nc(-c3c(F)cccc3F)cc(Nc3ccc(C(=O)N4CCCC4)cc3)c21
fIC50 (Blood [5]): 0.36 µM
Activity (Spleen [6]): Active
Activity (Spleen [16]): Active
inhibition in vivo at 100 mg/kg/day (Mus musculus [21]): 96%
Activity (Mus musculus [24]): Active
fIC50 (Blood [26]): 0.18 µM
inhibition in vivo at 100 mg/kg/day (Mus musculus [33]): 74%
